Test [1] relates to diet-induced NASH mice. The experiment in a line: Example 7: diet-induced (GAN diet) NASH mice, Compound 2, FXR agonists and combinations. Type of test: in vivo. The conditions noted are these: for blood glucose level compared to vehicle: FIG. 6; for liver TG levels at the termination of the study: FIG. 8; for plasma triglyceride (TG) levels: as early as seven days, FIG. 7; for relative terminal body weight compared to vehicle: study day 21, FIG. 5; for plasma TG levels compared to vehicle: day 21, FIG. 11; for total liver triglycerides compared to tropifexor: day 21, FIG. 12; for plasma insulin level, significance compared to vehicle / plasma insulin levels compared to vehicle alone and to Compound 2: study day 21, FIG. 9; for plasma ALT level compared to vehicle alone / plasma ALT levels compared to tropifexor: study day 21, FIG. 10. As to the method: NASH was induced in mice by feeding mice a Gubra amylin NASH (GAN) diet as described in Boland et al. World J Gastroenterol. 2019, 25(33): 4904-4920. One week prior to administration of a first dose of compounds, the mice were weighed and randomized, and their food intake was measured. Mice were randomly assigned to dosing groups, with 12 mice per group. Assigned dosages included the following; Compound 2 (10 mg/kg); tropifexor (0.3 mg/kg); Compound 2 (10 mg/kg)+tropifexor (0.3 mg/kg); Compound II-1 (10 mg/kg); Compound 2 (10 mg/kg)+Compound II-1 (30 mg/kg); Compound II-2 (10 mg/kg); and Compound 2 (10 mg/kg)+Compound II-2 (30 mg/kg). One group was mock treated with vehicle only as a control. Dosage of Compound II-1 and Compound II-2 were titrated over 6 days, with a dosage of 3 mg/kg administered on days 0, 1 and 2 and a dosage of 10 mg/kg administered on days 3, 4, and 5. Absolute and relative body weight of the mice were recorded daily.
(§1) Fed blood glucose and fed plasma levels of alanine transaminase (ALT) aspartate transaminase (AST), triglycerides (TG), and total cholesterol (TC) were measured at days 7, 14, 21.
After 3 weeks, animals were sacrificed. Plasma enzymes (P-ALT (alanine aminotransferase) and P-AST (aspartate aminotransferase)), total plasma triglycerides, and total plasma cholesterol were measured, and terminal necropsy of each liver was carried out, determining relative liver weight as a percentage of body weight, assaying total liver biochemistry including total liver triglycerides, plasma insulin and total liver cholesterol, as well as histological evaluation of total liver hydroxyproline, and steatosis. Tissue samples were preserved for characterization using RNAseq.

A further test has as its target T1, FXR receptor (Homo sapiens, UniProt Q96RI1).
T1 construct: beta-galactosidase enzyme fragment (EFC/PathHunter); expressed in transfected cells; host or cells: Chinese Hamster Ovary (CHO) cells, stably transfected, clonally derived
T1 sequence (Q96RI1 1-486): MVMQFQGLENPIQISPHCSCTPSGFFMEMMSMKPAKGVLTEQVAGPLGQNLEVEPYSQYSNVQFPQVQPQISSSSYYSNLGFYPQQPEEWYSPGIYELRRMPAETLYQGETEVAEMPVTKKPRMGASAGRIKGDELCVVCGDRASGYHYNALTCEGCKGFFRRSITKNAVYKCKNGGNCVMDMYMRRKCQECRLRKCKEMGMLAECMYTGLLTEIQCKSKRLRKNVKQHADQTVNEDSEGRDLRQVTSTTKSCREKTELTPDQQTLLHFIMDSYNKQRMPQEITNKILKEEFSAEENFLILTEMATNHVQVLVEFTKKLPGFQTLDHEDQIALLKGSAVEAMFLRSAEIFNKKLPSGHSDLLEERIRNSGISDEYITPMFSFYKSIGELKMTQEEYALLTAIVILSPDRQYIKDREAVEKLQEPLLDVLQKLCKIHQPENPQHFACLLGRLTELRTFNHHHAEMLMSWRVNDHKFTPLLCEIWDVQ
The experiment in a line: In vitro FXR activity, PathHunter enzyme fragment complementation assay in CHO cells. Type of test: cell-based. The conditions noted are these: for EC50: CHO PathHunter cells, ten-point dose curve, chemiluminescence; for Emax: CHO, read-out: Max Response (%). On the procedure: Cells were seeded in cell plating reagent in a total volume of 20 μL into 384-well microplates and incubated at 37° C., 5% CO2 humidified incubator for 24 or 48 hours prior to testing. FXR agonists were dissolved in DMSO (dimethyl sulfoxide). Ligands were subsequently diluted in the cell plating reagent to make up desired concentration stock solution. Ten-point dose curve serial dilutions were prepared in cell plating reagent. 5 μL of 5× sample was added to cells and incubated at 37° C. or room temperature for 3-16 hours. Final assay vehicle concentration was 1%. Chemiluminescent signals were generated through addition of 12.5 μL or 15 μL of detection reagent cocktail ([…]), followed by incubation at room temperature for 1 hour. Microplates were read for signal generation using a PerkinElmer Envision instrument to detect chemiluminescence. The percentage activity was calculated using the following formula: % Activity=100%×(mean RLU of test sample−mean RLU of vehicle control)/(mean MAX control ligand−mean RLU of vehicle control).

Test [2] has as its system diet-induced NASH mice. The experiment in a line: Example 6: diet-induced (GAN diet) NASH mice, FXR agonists alone. Type of test: in vivo. The settings on record: 10 mg/kg; for blood glucose level compared to vehicle: FIG. 2; for plasma triglyceride (TG) levels compared to vehicle: as early as seven days, FIG. 3; for total liver triglycerides: over the course of the study, FIG. 4; for relative terminal body weight compared to vehicle: study day 21, FIG. 1; for liver TG lowering compared to tropifexor: II-1 p<0.05, II-2 p<0.01. On the procedure:
NASH was induced in mice by feeding mice a Gubra amylin NASH (GAN) diet as described in Boland et al. World J Gastroenterol. 2019, 25(33): 4904-4920. One week prior to administration of a first dose of compounds, the mice were weighed and randomized, and their food intake was measured. Mice were randomly assigned to dosing groups, with 12 mice per group. Assigned dosages were: Compound II-1 (10 mg/kg); Compound II-2 (10 mg/kg) One group was mock treated with vehicle only as a control. Dosage of Compound II-1 and Compound II-2 were titrated over 3 days, with a dosage of 3 mg/kg administered on days 0, 1 and 2. Dosage of tropifexor was titrated over 2 days, with a dosage of 0.1 mg/kg administered on days 0 and 1. Absolute and relative body weight of the mice were recorded daily.
as §1
After 8 weeks, animals were sacrificed. Plasma enzymes (P-ALT (alanine aminotransferase) and P-AST (aspartate aminotransferase)), total plasma triglycerides, and total plasma cholesterol were measured, and terminal necropsy of each liver was carried out, determining relative liver weight as a percentage of body weight, assaying total liver biochemistry including total liver triglycerides, plasma insulin and total liver cholesterol, as well as histological evaluation of total liver hydroxyproline, and steatosis. Tissue samples were preserved for characterization using RNAseq.

Where [3] appears, read: % Activity relative to MAX control ligand.

`Cc1cc(OCP2(=O)OCC[C@@H](c3cccc(Cl)c3)O2)cc(C)c1Cc1ccc(O)c(C(C)C)c1` (stereo partly drawn) [Compound 2]: in the test with diet-induced NASH mice [1], the “blood glucose level compared to vehicle” value is listed as “lower blood glucose level”, the “liver TG levels at the termination of the study” value (“liver TG levels” for short) is on record as “lowered liver TG levels”, the “plasma triglyceride (TG) levels” value is recorded as “significantly reduced” and the “relative terminal body weight compared to vehicle” value (“relative terminal body weight” below) was “lower relative terminal body weight”.
On FXR receptor, `O=P(O)(O)c1cc(F)c2nc(N3[C@@H]4CC[C@H]3CC(OCc3c(-c5ccccc5OC(F)(F)F)noc3C3CC3)C4)sc2c1` (stereo partly drawn) [Compound II-1, (2-((1R,5S)-3-((5-cyclopropyl-3-(2-(trifluoromethoxy)phenyl)isoxazol-4-yl)methoxy)-8-azabicyclo[3.2.1]octan-8-yl)-4-fluorobenzo[d]thiazol-6-yl)phosphonic acid] gave an EC50 of 2860 nM. Moreover, the Emax at FXR receptor (setting [3]) was determined as 52%. In addition, in the test on diet-induced NASH mice [2], the “blood glucose level compared to vehicle” value is “lower blood glucose level”, the “plasma triglyceride (TG) levels compared to vehicle” value is “significantly reduced”, the total liver triglycerides entry was “similarly decreased” and the “relative terminal body weight” value is “lower relative terminal body weight”. Also, the “liver TG lowering compared to tropifexor” value in the test on diet-induced NASH mice [2] is “greater efficacy in lowering liver TG levels”. In the test on diet-induced NASH mice [1], the “blood glucose level compared to vehicle” value is on record as “lower blood glucose level”, the “liver TG levels” value is “lowered liver TG levels”, the “plasma triglyceride (TG) levels” value is “significantly reduced” and the “plasma TG levels compared to vehicle” value was “significant reduction of plasma TG levels”. Further, in the test with diet-induced NASH mice [1], the “total liver triglycerides compared to tropifexor” value is on record as “reduced total liver triglycerides than tropifexor”; the “relative terminal body weight” value is “lower relative terminal body weight”; the “plasma insulin level, significance compared to vehicle” value is “statistically significant reduction of plasma insulin level”; the “plasma insulin levels compared to vehicle alone and to Compound 2” value is “lower insulin levels”. Moreover, in the test with diet-induced NASH mice [1], the “plasma ALT level compared to vehicle alone” value is on record as “lower plasma ALT level” and the “plasma ALT levels compared to tropifexor” value is “lower plasma ALT levels”.
As for `CP(=O)(O)c1cc(F)c2nc(N3[C@@H]4CC[C@H]3CC(OCc3c(-c5ccccc5OC(F)(F)F)noc3C3CC3)C4)sc2c1` (stereo partly drawn) [Compound II-2], the “Max Response (%)” value on FXR receptor (setting [3]) is listed as 90%. Also, the EC50 on FXR receptor is 3080 nM. Besides, in the test with diet-induced NASH mice [2], the “blood glucose level compared to vehicle” value is recorded as “lower blood glucose level”, the “plasma triglyceride (TG) levels compared to vehicle” value is “significantly reduced”, the total liver triglycerides result is “similarly decreased” and the “relative terminal body weight” value is “lower relative terminal body weight”. The “liver TG lowering compared to tropifexor” value in the test on diet-induced NASH mice [2] is on record as “greater efficacy in lowering liver TG levels”. For the same compound, in the test with diet-induced NASH mice [2] (p<0.05), the “plasma TG lowering compared to tropifexor” value is recorded as “greater efficacy in lowering plasma TG levels”. In the test with diet-induced NASH mice [1], the “blood glucose level compared to vehicle” value was “lower blood glucose level”, the “liver TG levels” value is recorded as “lowered liver TG levels”, the “plasma triglyceride (TG) levels” value is “significantly reduced” and the “plasma TG levels compared to vehicle” value is “significant reduction of plasma TG levels”. In addition, in the test with diet-induced NASH mice [1], the “total liver triglycerides compared to tropifexor” value is recorded as “reduced total liver triglycerides than tropifexor”; the “relative terminal body weight” value was “lower relative terminal body weight”; the “plasma insulin level, significance compared to vehicle” value was “statistically significant reduction of plasma insulin level”; the “plasma insulin levels compared to vehicle alone and to Compound 2” value is listed as “lower insulin levels”. In addition, in the test on diet-induced NASH mice [1], the “plasma ALT level compared to vehicle alone” value is “lower plasma ALT level” and the “plasma ALT levels compared to tropifexor” value is “lower plasma ALT levels”.
For `Oc1cc(-c2cc(F)c3nc(N4[C@@H]5CC[C@H]4CC(OCc4c(-c6ccccc6OC(F)(F)F)noc4C4CC4)C5)sc3c2)on1` (stereo partly drawn) [Compound II-3, 5-(2-((1R,5S)-3-((5-cyclopropyl-3-(2-(trifluoromethoxy)phenyl)isoxazol-4-yl)methoxy)-8-azabicyclo[3.2.1]octan-8-yl)-4-fluorobenzo[d]thiazol-6-yl)isoxazol-3-ol], the EC50 on FXR receptor turned out to be 24.6 nM. Further, the Emax at FXR receptor (setting [3]) amounted to 151%. Besides, in the test with diet-induced NASH mice [1], the “plasma TG levels compared to vehicle” value is “significant reduction of plasma TG levels”; the “total liver triglycerides compared to tropifexor” value is “reduced total liver triglycerides than tropifexor”; the “plasma insulin level, significance compared to vehicle” value was “statistically significant reduction of plasma insulin level”; the “plasma insulin levels compared to vehicle alone and to Compound 2” value is listed as “lower insulin levels”. In the test on diet-induced NASH mice [1], the “plasma ALT level compared to vehicle alone” value was “lower plasma ALT level” and the “plasma ALT levels compared to tropifexor” value is recorded as “lower plasma ALT levels”.
Take `Oc1cc(-c2cc(F)c3nc(N4[C@@H]5CC[C@H]4CC(OCc4c(-c6ccccc6OC(F)(F)F)noc4C4CC4)C5)sc3c2)no1` (stereo partly drawn) [Compound II-4, 3-(2-((1R,5S)-3-((5-cyclopropyl-3-(2-(trifluoromethoxy)phenyl)isoxazol-4-yl)methoxy)-8-azabicyclo[3.2.1]octan-8-yl)-4-fluorobenzo[d]thiazol-6-yl)isoxazol-5-ol]: it took 81.1 nM to reach a half-maximal effect on FXR receptor (EC50). The Emax at FXR receptor (setting [3]) was found to be 159%. In addition, in the test on diet-induced NASH mice [1], the “plasma TG levels compared to vehicle” value was “significant reduction of plasma TG levels”; the “total liver triglycerides compared to tropifexor” value is on record as “reduced total liver triglycerides than tropifexor”; the “plasma insulin levels compared to vehicle alone and to Compound 2” value is given as “lower insulin levels”; the “plasma ALT level compared to vehicle alone” value is reported as “lower plasma ALT level”. In the test with diet-induced NASH mice [1], the “plasma ALT levels compared to tropifexor” value is on record as “lower plasma ALT levels”.

Source of the values: patent US12678430B2, “Compositions and methods for the treatment of liver disorders” (Viking Therapeutics, Inc., priority 2020, dated 2026).
